No end group written: not given here.
Key:
Format in all cases: cell-based
[1] = test system: Enterococcus faecalis (NCTC 12697); conditions: NCTC 12697, pH 7.4
Method: (§1) The minimum inhibitory concentration (MIC) and minimum bactericidal concentration (MBC) of peptides against the selected microorganisms were determined using the broth-dilution method, as described in the previous study. […] were used in the assay: Gram-positive bacteria Staphylococcus aureus (NCTC 10788), Enterococcus faecalis (NCTC 12697), and methicillin-resistant S. aureus (MRSA) (NCTC 12493); Gram-negative bacteria Escherichia coli (NCTC 10418), Pseudomonas aeruginosa (ATCC 27853), and Klebsiella pneumoniae (ATCC 43816). All the strains were cultured in Mueller Hinton Broth (MHB), pH 7.4 (Oxiod, Basingstoke, UK). Each peptide was tested at the final concentration from 128 to 1 µM in two-fold dilution. Norfloxacin was applied as the positive control.

[2] = test system: Escherichia coli (NCTC 10418); conditions: NCTC 10418, pH 7.4
Method: as §1

[3] = test system: Klebsiella pneumoniae (ATCC 43816); conditions: ATCC 43816, pH 7.4
Method: as §1

[4] = test system: Pseudomonas aeruginosa (ATCC 27853); conditions: ATCC 27853, pH 7.4
Method: as §1

[5] = test system: Staphylococcus aureus (NCTC 10788); conditions: NCTC 10788, pH 7.4
Method: as §1

[6] = test system: methicillin-resistant S. aureus (MRSA) (NCTC 12493); conditions: NCTC 12493, pH 7.4
Method: as §1

MRSA biofilm = conditions: biofilm, 24 h
Method: MBIC and MBEC assays were performed as previously described with minor modifications. For the MBIC assay, a suspension of broth diluted bacteria culture (5 × 10^5 CFU/mL) was incubated with the peptide solutions at 37 °C for 24 h. For MBEC assay, 100 μL inoculum culture was seeded to a 96-well-flat-bottom plate and incubated at 37 °C for 48 h to obtain the mature biofilm. Afterwards, the plate was washed by sterile phosphate-buffered saline (PBS; Sigma-Aldrich, Gillingham, UK) twice and treated with a series peptide solution at 37 °C for 24 h. Then, all the plates were washed with PBS and stained by 100 μL 0.1% crystal violet solution (Sigma-Aldrich, Gillingham, UK), and further dissolved by 30% acetic acid (Sigma-Aldrich, Gillingham, UK). The absorbance of each well was recorded by Synergy HT plate reader (Biotech, Minneapolis, MN, USA) at 595 nm.

LPLIAGLFGKIF-NH2 [des-Phe1 TPF]
MBC [1]: 32 µM | MIC [1]: 32 µM | MBC [2]: 128 µM | MIC [2]: 64 µM | MBC [3]: 128 µM | MIC [3]: 128 µM | MBC [4]: > 128 µM | MIC [4]: > 128 µM | MBC [5]: 16 µM | MIC [5]: 16 µM | MBC [6]: 32 µM | MIC [6]: 32 µM | MBIC (MRSA biofilm): 32/32 µM

Reference: publication PMC8123395, “Aggregation and Its Influence on the Bioactivities of a Novel Antimicrobial Peptide, Temporin-PF, and Its Analogues” (International Journal of Molecular Sciences, 2021)
